This passage reports IC50 and Inhibition results from ChEMBL document CHEMBL1130456, “Nonpeptide glycoprotein IIb/IIIa inhibitors. 13. design and synthesis of an orally active pyrazolopiperazinone nonpeptide fibrinogen receptor antagonist” (Bioorg Med Chem Lett, 1997).

One assay is filed under the species Homo sapiens. As to the kind of experiment: Concentration required for 50% inhibition of platelet aggregation of human gel-filtered platelets(GFP) in platelet aggregation assay. It counts as functional.
For assay [1], the system named is Rhesus monkey. As to the kind of experiment: Inhibition of platelet aggregation at 24 hr in response to collagen in conscious rhesus monkey. It counts as functional, Cercopithecidae.
For assay [2], the system named is Rhesus monkey. In words: Inhibition of platelet aggregation at 6 hr in response to ADP and collagen in conscious rhesus monkey. Format: functional, Cercopithecidae.

pIC50: −log10 of the molar value. “And” between values parts separate entries of the source, which are not always exact repeats. Identical values can stand only once.

As for `O=C(N[C@@H](CNC(=O)c1cc2n(n1)CCN(CCC1CCNCC1)C2=O)C(=O)O)OCc1ccccc1`, the pIC50 in the assay filed under Homo sapiens is 8.30.

`CS(=O)(=O)N[C@@H](CNC(=O)c1cc2n(n1)CCN(CCC1CCNCC1)C2=O)C(=O)O`: the negative logarithm of the IC50 (pIC50) in the assay filed under Homo sapiens was 7.82.

Take `CC(=O)N[C@@H](CNC(=O)c1cc2n(n1)CCN(CCC1CCNCC1)C2=O)C(=O)O`: the negative logarithm of the IC50 (pIC50) in the assay filed under Homo sapiens was 7.60.

Regarding `C=CCCS(=O)(=O)N[C@@H](CNC(=O)c1cc2n(n1)CCN(CCC1CCNCC1)C2=O)C(=O)O`, the pIC50 in the assay listed under Homo sapiens is 7.96.

In the case of `C[C@H](CC(=O)O)NC(=O)c1cc2n(n1)CCN(CCC1CCNCC1)C2=O`, the pIC50 in the assay listed under Homo sapiens is 6.59.

Consider `CCCCS(=O)(=O)N[C@@H](CNC(=O)c1cc2n(n1)CCN(CCC1CCNCC1)C2=O)C(=O)O`, for which the Inhibition was 86% and 31% with Rhesus monkey [1]; above 90% with Rhesus monkey [2].

Consider `O=C(NCc1ccccc1)N[C@@H](CNC(=O)c1cc2n(n1)CCN(CCC1CCNCC1)C2=O)C(=O)O`, for which, in the assay filed under Homo sapiens, the pIC50 was 7.66.

`N[C@@H](CNC(=O)c1cc2n(n1)CCN(CCC1CCNCC1)C2=O)C(=O)O` gave a pIC50 in the assay filed under Homo sapiens of 7.35.

In turn, `C#C[C@H](CC(=O)O)NC(=O)c1cc2n(n1)CCN(CCC1CCNCC1)C2=O` showed a pIC50 in the assay filed under Homo sapiens of 6.92.

As usually defined, the pIC50 is the IC50 on a negative log10 scale, so that one unit is a factor of ten. What is called Inhibition is the percentage by which the read-out fell short of the control.
